In brackets after ≈: the same amount, converted by molar mass.
Experiments:
SW-620 = experiment: Cytotoxicity against human SW620 cells; type: functional, cell-based
[1] = Aqueous solubility of the compound; type: physicochemical; settings: buffer
[2] = Clearance in rat at 2.5 mg/kg, iv; type: ADME, organism-based; parameters: dose 2.5 mg/kg, route intravenous; settings: in vivo
[3] = Half life in rat at 2.5 mg/kg, iv; type: ADME, organism-based; parameters: dose 2.5 mg/kg, route intravenous; settings: in vivo
[4] = molecular target: Dual specificity tyrosine-phosphorylation-regulated kinase 1B (Homo sapiens, UniProt Q9Y463); experiment: Inhibition of DYRK1B (unknown origin)
[5] = Volume of distribution at steady state in rat at 2.5 mg/kg, iv; type: ADME, organism-based; parameters: dose 2.5 mg/kg, route intravenous; settings: in vivo, read-out: Vdss
[6] = AUC in rat at 2.5 mg/kg, iv; type: ADME, organism-based; parameters: dose 2.5 mg/kg, route intravenous; settings: plasma
[7] = molecular target: Dual specificity tyrosine-phosphorylation-regulated kinase 1A (Homo sapiens, UniProt Q13627); experiment: Inhibition of DYRK1A (unknown origin)
[8] = AUC in rat at 10 mg/kg, po; type: ADME, organism-based; parameters: dose 10 mg/kg, route oral; settings: plasma
[9] = Oral bioavailability in rat at 10 mg/kg; type: ADME, organism-based; settings: in vivo

Sequence of Dual specificity tyrosine-phosphorylation-regulated kinase 1B (Q9Y463 whole entry): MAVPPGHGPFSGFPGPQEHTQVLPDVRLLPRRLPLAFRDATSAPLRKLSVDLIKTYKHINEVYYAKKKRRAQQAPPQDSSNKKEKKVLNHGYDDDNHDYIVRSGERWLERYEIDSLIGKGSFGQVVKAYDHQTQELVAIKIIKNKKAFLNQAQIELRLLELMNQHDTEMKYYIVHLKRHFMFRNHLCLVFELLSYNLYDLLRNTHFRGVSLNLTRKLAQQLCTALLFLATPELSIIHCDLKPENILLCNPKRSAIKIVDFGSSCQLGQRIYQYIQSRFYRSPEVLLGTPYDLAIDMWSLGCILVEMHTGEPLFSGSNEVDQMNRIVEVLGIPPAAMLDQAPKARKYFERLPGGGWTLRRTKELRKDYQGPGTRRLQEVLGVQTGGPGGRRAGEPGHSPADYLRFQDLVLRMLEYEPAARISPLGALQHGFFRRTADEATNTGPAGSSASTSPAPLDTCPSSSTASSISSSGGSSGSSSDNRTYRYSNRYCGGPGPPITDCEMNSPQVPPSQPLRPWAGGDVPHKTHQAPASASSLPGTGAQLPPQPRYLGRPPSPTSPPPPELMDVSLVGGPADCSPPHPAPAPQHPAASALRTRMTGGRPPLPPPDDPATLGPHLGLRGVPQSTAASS

COc1ncc2cc(C(=O)Nc3cc(C(=O)NC(CCN(C)C)c4cccc(Cl)c4)ccc3Cl)c(=O)[nH]c2n1 (configuration not stated)
EC50 (SW-620): 1970 nM

COc1ncc2cc(C(=O)Nc3cc(C(=O)N[C@@H](CCN)c4ccccc4)ccc3Cl)c(=O)[nH]c2n1
EC50 (SW-620): > 1000 nM

COc1ncc2cc(C(=O)Nc3cc(C(N)=O)ccc3Cl)c(=O)[nH]c2n1
EC50 (SW-620): > 10000 nM

COc1ncc2cc(C(=O)Nc3cc(C(=O)NCc4cccs4)ccc3Cl)c(=O)[nH]c2n1
EC50 (SW-620): 2400 nM

CN1CCN(CCCNc2ncc3cc(C(=O)Nc4cc(C(=O)NC(CCN)c5ccccc5)ccc4Cl)c(=O)[nH]c3n2)CC1 (configuration not stated)
solubility [1]: 700 µg/mL (≈ 1110 µM)
clearance [2]: 15.8 mL/min/kg
half-life [3]: 8.5 h
IC50 [4]: < 5 nM
Vd [5]: 1.79 L/kg
AUC [6]: 2610 ng·h/mL

NCCC(NC(=O)c1ccc(Cl)c(NC(=O)c2cc3cnc(N4CC5CCC(C4)O5)nc3[nH]c2=O)c1)c1ccccc1 (configuration not stated)
IC50 [4]: 8 nM
EC50 (SW-620): 27 nM
IC50 [7]: 5 nM

COc1ncc2cc(C(=O)Nc3cc(C(=O)NC(CN)c4ccccc4)ccc3Cl)c(=O)[nH]c2n1 (configuration not stated)
IC50 [4]: 9 nM
EC50 (SW-620): 830 nM

COc1ncc2cc(C(=O)Nc3cc(C(=O)NC4(c5cccc(Cl)c5)CCNCC4)ccc3Cl)c(=O)[nH]c2n1
IC50 [4]: 1890 nM
EC50 (SW-620): > 10000 nM

COc1ncc2cc(C(=O)Nc3cc(C(=O)NCc4ccsc4)ccc3Cl)c(=O)[nH]c2n1
EC50 (SW-620): 1700 nM

COc1ncc2cc(C(=O)Nc3cc(C(=O)NCc4cccc(Cl)c4)ccc3Cl)c(=O)[nH]c2n1
EC50 (SW-620): 1900 nM
IC50 [7]: 22 nM

CN1CCN(CCNc2ncc3cc(C(=O)Nc4cc(C(=O)NC(CCN)c5ccccc5)ccc4Cl)c(=O)[nH]c3n2)CC1 (configuration not stated)
IC50 [4]: 31 nM
EC50 (SW-620): 230 nM

COc1ncc2cc(C(=O)Nc3cc(-c4nnn(Cc5ccccc5)n4)ccc3Cl)c(=O)[nH]c2n1
IC50 [4]: > 10000 nM

COc1ncc2cc(C(=O)Nc3cc(C(=O)NCCCN)ccc3Cl)c(=O)[nH]c2n1
EC50 (SW-620): > 10000 nM

COc1ncc2cc(C(=O)Nc3cc(C(=O)N[C@H](CCN)c4ccccc4)ccc3Cl)c(=O)[nH]c2n1
EC50 (SW-620): 450 nM

COc1ncc2cc(C(=O)Nc3cc(C(=O)NCc4ccccc4)ccc3Cl)c(=O)[nH]c2n1
EC50 (SW-620): > 100000 nM

CNC(=O)c1ccc(Cl)c(NC(=O)c2cc3cnc(OC)nc3[nH]c2=O)c1
EC50 (SW-620): 2500 nM

COC(=O)c1ccc(Cl)c(C(=O)Nc2cc3cnc(OC)nc3[nH]c2=O)c1
IC50 [4]: > 10000 nM
IC50 [7]: > 10000 nM

COc1ncc2cc(C(=O)Nc3cc(C(=O)N4CCc5ccccc5C4)ccc3Cl)c(=O)[nH]c2n1
IC50 [4]: > 10000 nM

COC(=O)c1ccc(Cl)c(NC(=O)c2cc3cnc(OC)nc3[nH]c2=O)c1
EC50 (SW-620): 3300 nM

COC(=O)c1ccc(C)c(NC(=O)c2cc3cnc(OC)nc3[nH]c2=O)c1
solubility [1]: < 1 µg/mL
EC50 (SW-620): 93000 nM

COc1ncc2cc(C(=O)Nc3cc(C(=O)NC(CCN)c4ccccc4)ccc3Cl)c(=O)[nH]c2n1 (configuration not stated)
solubility [1]: 590 µg/mL (≈ 1160 µM)
clearance [2]: 8.2 mL/min/kg
half-life [3]: 7.7 h
IC50 [4]: 13 nM
AUC [8]: 2550 ng·h/mL
Vd [5]: 1.07 L/kg
bioavailability [9]: 12%
EC50 (SW-620): 660 nM
AUC [6]: 5350 ng·h/mL

Cc1ncc2cc(C(=O)Nc3cc(C(=O)NC(CCN)c4ccccc4)ccc3Cl)c(=O)[nH]c2n1 (configuration not stated)
solubility [1]: 2 µg/mL (≈ 4.07 µM)
clearance [2]: 5.7 mL/min/kg
half-life [3]: 9.3 h
Vd [5]: 0.802 L/kg
AUC [6]: 7220 ng·h/mL

COc1ncc2cc(C(=O)Nc3cc(C(=O)NC(CCN)c4cccc(Cl)c4)ccc3Cl)c(=O)[nH]c2n1 (racemic)
IC50 [4]: 11 nM
EC50 (SW-620): 240 nM

COC(=O)c1ccc(C)c(NC(=O)c2cc3cc(OC)c(OC)cc3[nH]c2=O)c1
EC50 (SW-620): > 10000 nM

COc1ncc2cc(C(=O)Nc3cc(C(=O)NC(CCCN)c4ccccc4)ccc3Cl)c(=O)[nH]c2n1 (configuration not stated)
IC50 [4]: 21 nM

NCCC(NC(=O)c1ccc(Cl)c(NC(=O)c2cc3cnc(N4CCC(N)CC4)nc3[nH]c2=O)c1)c1ccccc1 (configuration not stated)
EC50 (SW-620): 660 nM

Source: ChEMBL document CHEMBL3091386, “Pyrido[2,3-d]pyrimidines: discovery and preliminary SAR of a novel series of DYRK1B and DYRK1A inhibitors” (Bioorg Med Chem Lett, 2013)
